Source: patent US20260376293A1, “METHODS FOR STUDYING GPR158 PHARMACOLOGY AND IDENTIFICATION OF ITS LIGANDS” (UNIVERSITY OF FLORIDA RESEARCH FOUNDATION, INCORPORATED, priority 2022, published 2026)
Several values for one entry are separate records, joined by “and”; a condition that tells them apart may be missing. Equal values may be shown once.

Target: T1, GPR158-RGS7/Gβ5 complex (Homo sapiens, UniProt Q5T848)
T1 construct: substituting amino acids to alanine in full-length GPR158; expressed in transfected cells; host or cells: HEK293FT
T1 sequence (Q5T848 24-1215): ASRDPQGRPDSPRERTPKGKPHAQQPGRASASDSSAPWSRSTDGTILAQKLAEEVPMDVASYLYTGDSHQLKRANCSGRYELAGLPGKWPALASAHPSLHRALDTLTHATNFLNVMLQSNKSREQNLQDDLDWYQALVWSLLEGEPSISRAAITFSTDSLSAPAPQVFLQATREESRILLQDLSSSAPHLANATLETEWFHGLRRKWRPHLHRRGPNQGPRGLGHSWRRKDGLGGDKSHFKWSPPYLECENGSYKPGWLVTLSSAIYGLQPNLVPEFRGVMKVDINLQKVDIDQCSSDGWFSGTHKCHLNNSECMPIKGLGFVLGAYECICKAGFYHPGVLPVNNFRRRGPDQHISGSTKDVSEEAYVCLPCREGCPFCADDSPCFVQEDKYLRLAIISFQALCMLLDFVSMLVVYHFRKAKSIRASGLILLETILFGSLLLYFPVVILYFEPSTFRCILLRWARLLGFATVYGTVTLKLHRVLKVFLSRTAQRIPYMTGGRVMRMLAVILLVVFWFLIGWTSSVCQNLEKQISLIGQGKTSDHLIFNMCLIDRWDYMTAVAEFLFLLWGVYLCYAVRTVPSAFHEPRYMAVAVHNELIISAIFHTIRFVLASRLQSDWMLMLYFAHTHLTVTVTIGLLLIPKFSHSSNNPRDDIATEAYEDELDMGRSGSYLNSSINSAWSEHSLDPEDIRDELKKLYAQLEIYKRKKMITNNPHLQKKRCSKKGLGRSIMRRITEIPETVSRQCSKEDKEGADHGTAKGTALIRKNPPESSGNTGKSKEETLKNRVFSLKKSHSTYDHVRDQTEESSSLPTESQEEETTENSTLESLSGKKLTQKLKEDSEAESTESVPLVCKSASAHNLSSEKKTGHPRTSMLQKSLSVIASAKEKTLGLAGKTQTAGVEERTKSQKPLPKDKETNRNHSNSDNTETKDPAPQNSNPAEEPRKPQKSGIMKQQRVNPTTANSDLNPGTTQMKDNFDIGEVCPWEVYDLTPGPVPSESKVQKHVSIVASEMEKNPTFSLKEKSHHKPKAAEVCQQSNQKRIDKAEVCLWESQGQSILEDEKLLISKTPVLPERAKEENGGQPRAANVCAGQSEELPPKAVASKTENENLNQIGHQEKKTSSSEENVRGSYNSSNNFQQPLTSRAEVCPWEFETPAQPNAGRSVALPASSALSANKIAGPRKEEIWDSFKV
T1 sequence (P49802 1-495 partner): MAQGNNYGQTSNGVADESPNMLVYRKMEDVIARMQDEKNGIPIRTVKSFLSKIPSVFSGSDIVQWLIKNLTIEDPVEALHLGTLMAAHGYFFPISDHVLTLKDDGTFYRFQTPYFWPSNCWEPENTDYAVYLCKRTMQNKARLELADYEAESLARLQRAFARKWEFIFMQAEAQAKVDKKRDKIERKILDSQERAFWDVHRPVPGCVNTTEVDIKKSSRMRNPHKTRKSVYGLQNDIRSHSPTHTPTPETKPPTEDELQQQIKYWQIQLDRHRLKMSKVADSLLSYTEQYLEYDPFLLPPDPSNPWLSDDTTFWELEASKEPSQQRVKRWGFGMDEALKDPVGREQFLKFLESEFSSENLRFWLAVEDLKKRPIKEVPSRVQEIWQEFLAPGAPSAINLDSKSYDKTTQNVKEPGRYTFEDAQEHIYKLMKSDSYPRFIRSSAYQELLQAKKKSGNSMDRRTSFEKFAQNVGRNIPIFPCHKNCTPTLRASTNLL
T1 sequence (O14775 1-395 partner): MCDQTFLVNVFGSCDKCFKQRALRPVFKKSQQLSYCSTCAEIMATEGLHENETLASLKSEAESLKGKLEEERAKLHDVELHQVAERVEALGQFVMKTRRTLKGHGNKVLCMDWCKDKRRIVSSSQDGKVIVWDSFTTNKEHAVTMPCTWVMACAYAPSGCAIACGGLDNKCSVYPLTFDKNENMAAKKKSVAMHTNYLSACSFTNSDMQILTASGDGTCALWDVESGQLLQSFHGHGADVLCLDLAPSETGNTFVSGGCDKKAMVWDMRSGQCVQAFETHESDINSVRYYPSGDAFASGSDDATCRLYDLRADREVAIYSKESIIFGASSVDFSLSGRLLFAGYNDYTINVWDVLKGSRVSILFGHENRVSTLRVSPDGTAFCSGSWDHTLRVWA
Experiment: BRET GAP assay, Gαo deactivation (KGAP)
Type: cell-based
Conditions: for IC50: GPR158/RGS7/Gβ5, Gαo, D2R, n=4 in triplicate, mean±s.e.m., read-out: IC50 (change in GAP activity, KGAP)
Protocol: FIGS. 3A-3D. Effect of taurine on Gαo deactivation mediated by GPR158-RGS7/Gβ5 complex. A and B) Representative traces of BRET signal showing Gαo activation mediated by D2R upon application of dopamine (100 μM) at t=0 s and Gαo deactivation triggered by injection of haloperidol (100 μM) at t=15 s (arrow). Time courses were examined without or with taurine (100 μM) incubation in mock transfected cells or cells transfected with GPR158. C) Quantification of deactivation time constant of the reactions presented in 3A and 3B. 1/τ is calculated from deactivation curves of 5 independent experiments each performed in triplicate for each transfection condition. Data shown represent mean±s.e.m. ****p<0.0001, ns=p>0.05 (two-way ANOVA). Columns with no fill (Mock), columns with dotted fill (Taurine) D) Dose response profile of changes in GAP activity (KGAP) calculated by subtracting the baseline deactivation rate (1/τ) from the rate of the reaction in the presence of the GPR158/RGS7/Gβ5. […] Data shown represent mean±s.e.m of 4 independent experiments each conduced in triplicate.
FIGS. 4A-4E. Glycine slows deactivation of Gαo by GPR158-RGS7/Gβ5 complex A) Schematics of the BRET-based GAP assay. G proteins are activated at t=0 s by stimulating GPCR (D2R, 0.1 mM). After reaching steady state the GPCR activity is terminated by injection of haloperidol (0.1 mM) at t=15 s (arrow). G protein deactivation is then monitored by dissociation of the Venus-Gβγ from masGRK3ct-Nluc reporter which occurs upon GTP hydrolysis by Gαo quenching the BRET signal. B and C) Representative traces of BRET signal showing Gαo activation and deactivation time course with or without glycine (100 μM) treatment in cells without GPR158 (b) or cells transfected with GPR158 (c). D) Quantification of deactivation time constant of the reactions presented in panels b and c. 1/τ is calculated from deactivation curves of n=5 independent experiments in triplicate from each cell transfection group. Data shown represent mean±s.e.m. ****p<0.0001, ns, p>0.05 (two-way ANOVA). Columns with no fill (Mock), columns with dotted fill (Glycine), columns with angled-line fill (Taurine) E) Dose response profile of changes in GAP activity (KGAP) calculated by subtracting the baseline deactivation rate (1/τ) from the rate of the reaction in the presence of the GPR158/RGS7/Gβ5. […] Data shown represent mean±s.e.m of n=4 independent experiments each conduced in triplicate.
To understand how glycine action on GPR158 regulates intracellular cAMP the inventors focused on GPR158 interaction with RGS7/Gβ5, an established GTPase Activating Protein (GAP) for the Gαi/o proteins (38) known to regulate cAMP production (39). The inventors used a well-established cell-based assay to monitor GAP activity by following kinetics of G protein deactivation (40) (FIG. 4A). In this assay, activation of G proteins by GDP/GTP exchange in response to GPCR stimulation generates the BRET signal upon interaction of liberated Venus-Gβγ subunits with the masGRK3CT-Nluc reporter.
Cellular measurements of BRET between Venus-Gβ1γ2 and masGRK3ct-Nluc were performed to examine GAP activity of RGS protein in living cells (described in detail in Masuho et al., 2015 (40)). Cells were co-transfected with the pcDNA3.1(+) plasmid coding for dopamine D2 receptor (1), GαoA (2), masGRK3ct-Nluc (1), Venus-156-239-Gβ1 (1), Venus-1-155-Gγ2 (1), and when indicated with RGS7/Gβ5 (2), GPR158 (1) (in parenthesis the ratio of transfected DNA). […]

potency of taurine as compared to glycine (GAP assay IC50 comparison)	IC50	SMILES	effect on Gαo deactivation (GPR158 co-expressed with RGS7/Gβ5, 100 μM)	effect on Gαo deactivation without GPR158 (baseline or RGS7/Gβ5 without GPR158, glycine 100 μM)
approximately two-fold lower potency	~6 µM and 5.89 µM	NCCS(=O)(=O)O [taurine, 2-aminoethanesulfonic acid]	–	–
–	~3 µM and 2.93 µM	NCC(=O)O [glycine]	significantly decelerated Gαo deactivation	no effect on either baseline Gαo deactivation or RGS7/Gβ5-assisted process
